One assay addresses T1, Human Tyrosinase (Homo sapiens, UniProt P14679).
T1 construct: endogenous in cells; host or cells: HM3KO human melanoma cells (Triton X-100 extract, dialysed supernatant)
T1 sequence (P14679 19-529): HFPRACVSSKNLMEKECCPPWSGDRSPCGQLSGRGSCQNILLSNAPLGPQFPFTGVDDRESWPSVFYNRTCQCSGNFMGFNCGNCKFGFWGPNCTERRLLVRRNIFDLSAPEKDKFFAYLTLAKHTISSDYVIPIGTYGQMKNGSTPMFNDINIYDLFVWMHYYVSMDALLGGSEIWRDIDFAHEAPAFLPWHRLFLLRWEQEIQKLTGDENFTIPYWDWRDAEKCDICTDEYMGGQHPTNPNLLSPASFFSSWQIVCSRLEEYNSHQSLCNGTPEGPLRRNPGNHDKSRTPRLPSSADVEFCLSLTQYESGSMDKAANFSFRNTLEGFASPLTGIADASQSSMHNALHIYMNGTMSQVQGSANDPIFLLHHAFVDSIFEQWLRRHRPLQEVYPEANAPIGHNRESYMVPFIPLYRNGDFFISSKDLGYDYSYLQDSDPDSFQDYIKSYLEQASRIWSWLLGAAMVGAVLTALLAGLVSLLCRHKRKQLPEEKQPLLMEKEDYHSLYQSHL
Nature of the assay: Inhibitory effects on human tyrosinase prepared from HM3KO human melanoma cells. The class given is biochemical.

Assay [1] has as its system murine melanoma B16 cells. Nature of the assay: Melanin production in murine melanoma B-16 cells. The class given is cell-based. As to conditions: for Melanin production (%): B16 cells, 3 days. The procedure:
The melanoma cell line was grown in DMEM culture medium containing 4.5 g of glucose/l, 10% fetal bovine serum and 1% antibiotic agent and cultivated at 37° C. under a condition of 5% CO2. The cell suspension was inoculated in a 50 mL T-flask (3×10^5 cells/mL) and the cells were allowed to completely adhere to the plate for 24 hr. Then, test samples diluted in DMEM medium at concentrations of 1, 5, 10, 50, and 100 μg/mL were added to the cultivated cells, and the mixture was cultivated at 5% CO2 and 37° C. for 3 days. After cultivation, culture medium was thoroughly removed and the cells were isolated via trypsin treatment. The suspensions were then centrifuged for 5 min to collect cells. The obtained cells were treated with 5% trichloroacetic acid (TCA), stirred and centrifuged. The precipitated melanin was washed with phosphate buffered saline (PBS), and treated with 1 N NaOH to dissolve the melanin therein. Absorbance at 475 nm was measured. Melanin concentration was determined from a standard concentration curve of synthetic melanin (SIGMA Co., USA).

In a further assay the test system is melanocytes. Nature of the assay: Microscopic observation of pigmentation of confluent melanocyte monolayer. It counts as cell-based. As to conditions: cell line not specified. An excerpt: The pigmentation of a confluent monolayer of melanocytes is visible microscopically, as the cells contain black melanin pigment.
Assay [2] has as its system Mushroom Tyrosinase. As to the kind of experiment: Extended duration of mushroom tyrosinase inhibition (up to 24 hours). The class given is biochemical. The method, then:
(§1) L-Tyrosine, the substrate for tyrosinase, was dissolved in 50 mM sodium phosphate buffer (pH6.8) to prepare a solution of 0.1 mg/mL L-tyrosine. […] 100 μL of the L-tyrosine solution was introduced into a test tube, and 100 μL of 50 mM sodium phosphate buffer (pH6.8) with or without test samples were added thereto, and then 10 μL of 200 U/mL tyrosinase were mixed and incubated at 37° C. for 15 min.
Using the experimental conditions described in the Mushroom Tyrosinase experiment described above, the reaction mixtures, containing various concentrations from 1 μg/mL to 50 μg/mL of the agents assayed, were incubated at 37° C. and spectrophotometric measurements of dopachrome were made at time intervals of up to 24 hours.

Another assay deals with T2, Murine Tyrosinase (Mus musculus, UniProt P11344).
T2 construct: supernatant was dialyzed against 50 mM sodium phosphate buffer (pH 6.8) and then used as a source of murine tyrosinase; endogenous in cells; host or cells: murine melanoma B-16 cells (Triton X-100 extract, dialysed supernatant)
T2 sequence (P11344 19-533): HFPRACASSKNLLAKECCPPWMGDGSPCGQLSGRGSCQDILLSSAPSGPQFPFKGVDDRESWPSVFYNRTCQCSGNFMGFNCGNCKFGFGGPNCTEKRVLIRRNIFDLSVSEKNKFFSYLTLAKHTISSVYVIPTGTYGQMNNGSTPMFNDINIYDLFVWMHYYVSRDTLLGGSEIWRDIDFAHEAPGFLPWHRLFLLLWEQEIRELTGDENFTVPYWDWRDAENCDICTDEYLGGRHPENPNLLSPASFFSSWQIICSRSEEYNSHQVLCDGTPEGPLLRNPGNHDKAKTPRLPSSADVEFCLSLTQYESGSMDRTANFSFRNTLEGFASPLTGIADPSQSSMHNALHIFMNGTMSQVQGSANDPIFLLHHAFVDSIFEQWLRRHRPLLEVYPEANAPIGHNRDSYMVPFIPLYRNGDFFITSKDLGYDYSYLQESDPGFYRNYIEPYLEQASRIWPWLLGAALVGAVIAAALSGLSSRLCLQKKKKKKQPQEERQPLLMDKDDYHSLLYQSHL
Nature of the assay: Inhibitory effects on murine tyrosinase prepared from melanoma B-16 cells. The note with it: tyrosinase from melanoma B-16 cells. It counts as biochemical.

A further assay relates to tyrosinase mRNA. Nature of the assay: RT-PCR analysis of tyrosinase mRNA in murine melanoma B-16 cells. The class given is cell-based. The note with it: FIG. 5. The procedure: To elucidate the mechanism by which Morus alba extract and mulberroside A exerts its effect, RT-PCR analysis was performed. mRNA from cultured murine melanoma B-16 cells were isolated using a Promega polytract system 1000 mRNA isolation kit. Approximately 80 to 100 μg of mRNA was isolated from 10^8 cells. We synthesized the 3′ primer 5′[…]3′ (nucleotides 197-216 from the ATG start codon) and the 5′ primer 5′[…]3′ (nucleotides 669-688 from the ATG start codon) for use in the RT-PCR analysis of tyrosinase mRNA.
This mixture was incubated for 1 minute at 94° C., then for 30 seconds at 55° C. and finally for 10 minutes at 72° C.
For PCR amplification of cDNA, 80 μL of a PCR mixture containing 8 μL of 10× chelating buffer, 1 mM MgCl2 and 50 pmole of 5′ primer was added to the reverse transcription reaction mixture. DNA amplification was performed on a Perkin Elmer Gene Amp PCR system 2400 thermal cycler. The PCR cycle conditions included melting for 30 sec at 94° C., annealing for 30 sec at 55° C., and extension for 1 min at 72° C. The PCR ran for 28 cycles, and the products (492 bp) were analyzed by 2% agarose gel electrophoresis. As an internal control, mouse β-actin mRNA was also amplified using the mouse β-actin amplimer set (Clontech, USA).

The test system of the next assay is melan-a cell line. As to the kind of experiment: Melanin production in melan-a cell line. The class given is cell-based. The note with it: melan-a cells; for Melanin production (%): 72 hr. The method, then:
Melan-a cells were grown in 10 mL of RPMI 1640 medium supplemented with antibiotics, 10% fetal bovine serum (FBS), and 20 nM TPA. The cell suspension was inoculated in a 24-well plate (10^5 cells/mL) and the cells were allowed to completely adhere to the plate for 24 hr. Test samples dissolved in DMSO were added to the plate and incubated at 37° C. for 72 hr in a CO2 incubator. The culture medium was then thoroughly removed and the cells were isolated through trypsin treatment. The suspensions were then centrifuged for 5 min to collect cells, which were then treated with 5% trichloroacetic acid (TCA), stirred and centrifuged to precipitate the melanin. Melanin was washed with PBS and dissolved in 1 N NaOH. Absorbance at 475 nm was measured. Melanin concentration was determined from a standard concentration curve of synthetic melanin (SIGMA Co., USA).

Assay [3] addresses Mushroom Tyrosinase. Nature of the assay: Inhibitory effects on mushroom tyrosinase (dopachrome, OD490, 15 min). The class given is biochemical. The procedure:
as §1
The amount of dopachrome in the reaction mixture was determined spectrophotmetrically using absorbance measurement at 490 nm.

Procedure for Human Tyrosinase: Human tyrosinase was prepared from the HM3KO human melanoma cell line. HM3KO cells were cultured in modified Eagles medium supplemented with 10% fetal calf serum. Cultured cells were removed from culture dishes and washed once with PBS buffer and centrifuged. The cell pellet was sonicated in 100 mM sodium phosphate buffer (pH6.8) containing 0.1 mM phenylmethylsulfonyl fluoride (PMSF) and 1% Triton X-100, incubated in ice for 1 hr to solubilize the tyrosinase, and centrifuged. The supernatant was dialyzed against 50 mM sodium phosphate buffer (pH 6.8) and then used as the source of human tyrosinase for use in our inhibition assays.
As in the mushroom and murine tyrosinase experiments discussed above, the amount of dopachrome in the reaction mixture was determined spectrophotmetrically using absorbance measurement at 490 nm.
Procedure for Murine Tyrosinase: Murine tyrosinase was prepared from the melanoma B-16 cell line. Murine melanoma B-16 cells were grown in DMEM (13.4 mg/mL of Dulbecco's modified Eagle's medium, 24 mM NaHCO3, 10 mM HEPES, 143 units/mL of penicillin G potassium, 160 μg/mL of streptomycin sulfate, pH 7.1) containing 10% fetal bovine serum (FBS) with 5% CO2 at 37° C. When the cells were confluent, melanoma cells were removed from culture dishes and washed once with PBS buffer. The cell suspension was centrifuged at 250×g for 10 min at 4° C. The cell pellet was suspended in 0.5 mL of 50 mM sodium phosphate buffer (pH 6.8) containing 0.1 mM phenylmethylsulfonyl fluoride and 0.5% Triton X-100. The cell suspension was sonicated six times for 30 sec each with 1 min intervals and then incubated at 4° C. for 1 hr to solubilize the tyrosinase. After centrifugation at 50,000×g for 20 min at 4° C., supernatant was dialyzed against 50 mM sodium phosphate buffer (pH 6.8) and then used as a source of murine tyrosinase.
As in the mushroom tyrosinase experiment discussed above, the amount of dopachrome in the reaction mixture was determined spectrophotmetrically using absorbance measurement at 490 nm.

As to `OC[C@H]1O[C@@H](Oc2cc(O)cc(/C=C/c3ccc(O[C@@H]4O[C@H](CO)[C@@H](O)[C@H](O)[C@H]4O)cc3O)c2)[C@H](O)[C@@H](O)[C@@H]1O` [Mulberroside A, mulberroside A], the IC50 against Human Tyrosinase was 76.8 µM; at Mushroom Tyrosinase [2] (read-out: IC50 for tyrosinase inhibition after 24 hours incubation, 24 hours incubation), 20 µM; against Murine Tyrosinase it was 61.5 µM; against Mushroom Tyrosinase [3] (37° C., 15 min, L-tyrosine substrate) it was 9.5 µM. The “Melanin production (%)” value in assay [1] (1 μg/mL) was found to be 98.3 ± 1.0%; in assay [1] (5 μg/mL) it was 92.4 ± 2.1%; in assay [1] (10 μg/mL) it was 91.2 ± 7.3%; in assay [1] (50 μg/mL), 59.8 ± 9.0%; in assay [1] (100 μg/mL), 21.8 ± 5.4%; in the assay with melan-a cell line (1 μg/mL) it was 98.5 ± 7.2%. Besides, the “Melanin production (%)” value in the assay with melan-a cell line (5 μg/mL) was 93.6 ± 4.8%; in the assay on melan-a cell line (10 μg/mL), 92.8 ± 6.5%; in the assay with melan-a cell line (50 μg/mL), 61.2 ± 8.0%; with melan-a cell line (100 μg/mL) it was 23.7 ± 3.8%. Further, the “reduction in melanin production” value in assay [1] (melanoma B-16 cells, 100 μg/mL) is given as 78.2%; in the assay with melan-a cell line (100 μg/mL), 76.3%. Further, the “pigmentation of treated cells observed microscopically” value with melanocytes is listed as “Reduced pigmentation”. Besides, the “fold stronger inhibitory effect on tyrosinase activity than kojic acid” value with Mushroom Tyrosinase [2] (from IC50 values after 24 hours incubation) worked out at 12 fold. For the same compound, the “amount of tyrosinase mRNA” value in the assay with tyrosinase mRNA is reported as “decreased the amount of tyrosinase mRNA in a dose-dependent manner”. For the same compound, the “inhibitory effect on mushroom tyrosinase (in words)” value in the assay on Mushroom Tyrosinase [3] (FIGS. 1 and 2) is “the most potent inhibitors of mushroom tyrosinase”.

As usually defined, the IC50 is the concentration needed to halve the response being measured.

The values above are taken from US20060216253A1, “Whitening cosmetics containing morus alba extracts” (Time and Cross, Inc., priority 2005, published 2006).
